Assays:
Assay in all cases: radiometric filter-binding kinase assay
[1] = system: AKT2 (human), P31751 [S474D]
AURKB (human) = AURKB (human) (UniProt Q96GD4)
CHEK1 (human) = CHEK1 (human) (UniProt O14757)
CLK2 (human) = CLK2 (human) (UniProt P49760)
CSNK2A1 (human) = CSNK2A1 (human) (UniProt P68400)
CaMK1 (human) = CaMK1 (human) (UniProt Q14012)
DCLK2 (human) = DCLK2 (human) (UniProt Q8N568)
EPHA2 (human) = EPHA2 (human) (UniProt P29317)
EPHB3 (human) = EPHB3 (human) (UniProt P54753)
FGFR1 (human) = FGFR1 (human) (UniProt P11362)
HIPK1 (human) = HIPK1 (human) (UniProt Q86Z02)
JAK2 JH1 JH2 (human) = JAK2 JH1 JH2 (human) (UniProt O60674)
Chain of JAK2 JH1 JH2 (human) (O60674 whole entry, looked up): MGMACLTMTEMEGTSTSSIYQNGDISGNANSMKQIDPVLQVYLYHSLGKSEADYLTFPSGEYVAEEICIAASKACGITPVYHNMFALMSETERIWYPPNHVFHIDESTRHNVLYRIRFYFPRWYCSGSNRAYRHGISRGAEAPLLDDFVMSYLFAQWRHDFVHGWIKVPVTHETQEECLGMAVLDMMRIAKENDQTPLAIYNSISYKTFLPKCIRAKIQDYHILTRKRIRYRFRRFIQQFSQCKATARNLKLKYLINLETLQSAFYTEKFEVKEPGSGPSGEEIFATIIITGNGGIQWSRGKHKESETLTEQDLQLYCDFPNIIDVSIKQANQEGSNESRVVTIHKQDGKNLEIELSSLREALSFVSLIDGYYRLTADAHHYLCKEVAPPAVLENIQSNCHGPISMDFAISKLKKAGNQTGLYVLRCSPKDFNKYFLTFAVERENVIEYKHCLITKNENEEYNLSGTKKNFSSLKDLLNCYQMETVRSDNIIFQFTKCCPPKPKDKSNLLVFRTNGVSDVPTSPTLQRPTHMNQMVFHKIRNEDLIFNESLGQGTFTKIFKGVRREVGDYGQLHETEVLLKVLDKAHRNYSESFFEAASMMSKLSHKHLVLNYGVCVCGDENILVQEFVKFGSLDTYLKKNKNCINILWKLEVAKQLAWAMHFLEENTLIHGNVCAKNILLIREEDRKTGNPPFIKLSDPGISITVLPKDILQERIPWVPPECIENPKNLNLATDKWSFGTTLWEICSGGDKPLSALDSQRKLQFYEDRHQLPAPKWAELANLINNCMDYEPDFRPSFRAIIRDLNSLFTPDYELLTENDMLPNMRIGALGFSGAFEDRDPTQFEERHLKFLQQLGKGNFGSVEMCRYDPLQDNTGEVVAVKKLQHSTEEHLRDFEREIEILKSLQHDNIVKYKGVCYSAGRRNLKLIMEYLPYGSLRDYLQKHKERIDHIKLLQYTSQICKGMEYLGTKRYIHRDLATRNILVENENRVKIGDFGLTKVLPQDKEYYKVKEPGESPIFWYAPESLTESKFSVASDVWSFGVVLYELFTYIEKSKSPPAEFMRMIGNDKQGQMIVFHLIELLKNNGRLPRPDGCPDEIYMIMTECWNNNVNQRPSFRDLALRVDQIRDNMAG

MAP2K1 (human) = MAP2K1 (human) (UniProt Q02750)
MAP3K9 (human) = MAP3K9 (human) (UniProt P80192)
MAPK1 (human) = MAPK1 (human) (UniProt P28482)
Chain of MAPK1 (human) (P28482 whole entry, looked up): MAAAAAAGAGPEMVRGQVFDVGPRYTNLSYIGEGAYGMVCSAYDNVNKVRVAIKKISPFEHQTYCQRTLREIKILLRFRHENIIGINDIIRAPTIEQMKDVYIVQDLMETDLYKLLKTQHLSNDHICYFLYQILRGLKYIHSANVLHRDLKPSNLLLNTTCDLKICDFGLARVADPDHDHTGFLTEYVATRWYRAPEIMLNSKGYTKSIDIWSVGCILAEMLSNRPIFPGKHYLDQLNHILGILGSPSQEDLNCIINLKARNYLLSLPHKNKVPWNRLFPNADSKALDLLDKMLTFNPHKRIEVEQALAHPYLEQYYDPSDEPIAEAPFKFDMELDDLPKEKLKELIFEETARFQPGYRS

MAPK11 (human) = MAPK11 (human) (UniProt Q15759)
MAPK12 (human) = MAPK12 (human) (UniProt P53778)
MAPK8 (human) = MAPK8 (human) (UniProt P45983)
MAPK9 (human) = MAPK9 (human) (UniProt P45984)
MARK1 (human) = MARK1 (human) (UniProt Q9P0L2)
MARK3 (human) = MARK3 (human) (UniProt P27448)
MST4 (human) = MST4 (human) (UniProt Q9P289)
MYLK (human) = MYLK (human) (UniProt Q15746)
Chain of MYLK (human) (Q15746 whole entry, looked up): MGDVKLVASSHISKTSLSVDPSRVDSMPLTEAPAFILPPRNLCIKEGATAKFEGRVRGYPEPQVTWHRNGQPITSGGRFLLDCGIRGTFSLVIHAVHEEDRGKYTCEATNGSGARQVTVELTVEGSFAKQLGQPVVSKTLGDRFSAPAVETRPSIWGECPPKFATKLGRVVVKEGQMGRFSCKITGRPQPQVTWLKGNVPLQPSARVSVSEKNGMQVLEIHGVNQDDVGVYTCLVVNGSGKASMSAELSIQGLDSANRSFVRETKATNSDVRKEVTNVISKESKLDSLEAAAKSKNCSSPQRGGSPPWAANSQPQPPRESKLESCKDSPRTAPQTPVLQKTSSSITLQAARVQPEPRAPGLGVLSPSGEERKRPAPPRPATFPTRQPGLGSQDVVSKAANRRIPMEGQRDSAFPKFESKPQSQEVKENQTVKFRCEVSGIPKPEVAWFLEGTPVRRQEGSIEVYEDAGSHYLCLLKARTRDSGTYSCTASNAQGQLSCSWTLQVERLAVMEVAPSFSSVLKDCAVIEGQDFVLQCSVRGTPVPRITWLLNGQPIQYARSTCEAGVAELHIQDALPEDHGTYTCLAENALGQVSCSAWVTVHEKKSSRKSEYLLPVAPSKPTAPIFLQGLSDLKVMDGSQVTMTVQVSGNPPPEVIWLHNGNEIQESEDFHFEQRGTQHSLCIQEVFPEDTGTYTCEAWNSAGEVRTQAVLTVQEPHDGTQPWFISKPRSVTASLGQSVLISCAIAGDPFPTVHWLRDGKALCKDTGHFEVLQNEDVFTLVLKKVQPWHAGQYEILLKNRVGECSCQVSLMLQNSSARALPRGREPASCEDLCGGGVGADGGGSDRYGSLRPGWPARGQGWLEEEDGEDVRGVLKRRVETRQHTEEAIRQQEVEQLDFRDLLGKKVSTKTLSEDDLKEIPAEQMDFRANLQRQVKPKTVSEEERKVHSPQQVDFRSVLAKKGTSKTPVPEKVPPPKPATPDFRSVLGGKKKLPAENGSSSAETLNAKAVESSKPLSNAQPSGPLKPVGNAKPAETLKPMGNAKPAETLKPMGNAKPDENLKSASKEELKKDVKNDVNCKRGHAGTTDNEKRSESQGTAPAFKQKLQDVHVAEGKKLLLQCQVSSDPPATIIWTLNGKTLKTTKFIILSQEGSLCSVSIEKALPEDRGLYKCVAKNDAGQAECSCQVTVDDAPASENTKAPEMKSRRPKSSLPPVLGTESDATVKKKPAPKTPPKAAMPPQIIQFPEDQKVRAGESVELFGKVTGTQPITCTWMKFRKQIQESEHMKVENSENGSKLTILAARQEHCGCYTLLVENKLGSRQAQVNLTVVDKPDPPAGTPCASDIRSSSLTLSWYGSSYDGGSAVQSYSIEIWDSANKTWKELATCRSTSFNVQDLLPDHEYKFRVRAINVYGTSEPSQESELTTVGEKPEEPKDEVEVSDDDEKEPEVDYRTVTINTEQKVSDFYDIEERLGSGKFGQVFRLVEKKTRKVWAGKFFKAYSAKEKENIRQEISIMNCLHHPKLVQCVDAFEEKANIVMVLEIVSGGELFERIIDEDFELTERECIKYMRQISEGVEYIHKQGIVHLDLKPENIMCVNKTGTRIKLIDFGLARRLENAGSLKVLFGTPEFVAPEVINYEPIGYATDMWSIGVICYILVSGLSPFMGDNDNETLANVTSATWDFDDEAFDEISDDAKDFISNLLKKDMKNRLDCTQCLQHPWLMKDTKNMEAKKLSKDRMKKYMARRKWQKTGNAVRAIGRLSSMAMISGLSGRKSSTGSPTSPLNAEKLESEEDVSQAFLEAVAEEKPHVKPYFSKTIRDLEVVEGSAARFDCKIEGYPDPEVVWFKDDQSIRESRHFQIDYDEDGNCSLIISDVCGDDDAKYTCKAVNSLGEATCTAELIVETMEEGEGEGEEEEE

PAK4 (human) = PAK4 (human) (UniProt O96013)
PHKG1 (human) = PHKG1 (human) (UniProt Q16816)
PIM3 (human) = PIM3 (human) (UniProt Q86V86)
PRKCZ (human) = PRKCZ (human) (UniProt Q05513)
RPS6KA1 KD1 KD2 (human) = RPS6KA1 KD1 KD2 (human) (UniProt Q15418)
SRC (human) = SRC (human) (UniProt P12931)
SRPK1 (human) = SRPK1 (human) (UniProt Q96SB4)
[2] = target: STK11 CAB39 STRADA (human) (UniProt Q9Y376+Q7RTN6+Q15831)
Chain of STK11 CAB39 STRADA (human) (Q15831 whole entry, looked up): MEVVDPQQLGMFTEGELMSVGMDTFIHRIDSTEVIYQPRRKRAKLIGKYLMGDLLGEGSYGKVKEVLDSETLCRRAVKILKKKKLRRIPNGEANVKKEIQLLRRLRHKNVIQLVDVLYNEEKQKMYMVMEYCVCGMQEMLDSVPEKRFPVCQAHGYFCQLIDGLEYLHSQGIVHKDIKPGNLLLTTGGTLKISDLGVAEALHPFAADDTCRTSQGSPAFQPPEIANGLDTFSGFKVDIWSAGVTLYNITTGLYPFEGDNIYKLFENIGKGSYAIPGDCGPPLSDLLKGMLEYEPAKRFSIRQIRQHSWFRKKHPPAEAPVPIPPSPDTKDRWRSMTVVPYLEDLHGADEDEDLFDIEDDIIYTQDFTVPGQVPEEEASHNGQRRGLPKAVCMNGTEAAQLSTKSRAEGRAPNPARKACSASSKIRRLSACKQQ
Chain of STK11 CAB39 STRADA (human) (Q7RTN6 whole entry, looked up): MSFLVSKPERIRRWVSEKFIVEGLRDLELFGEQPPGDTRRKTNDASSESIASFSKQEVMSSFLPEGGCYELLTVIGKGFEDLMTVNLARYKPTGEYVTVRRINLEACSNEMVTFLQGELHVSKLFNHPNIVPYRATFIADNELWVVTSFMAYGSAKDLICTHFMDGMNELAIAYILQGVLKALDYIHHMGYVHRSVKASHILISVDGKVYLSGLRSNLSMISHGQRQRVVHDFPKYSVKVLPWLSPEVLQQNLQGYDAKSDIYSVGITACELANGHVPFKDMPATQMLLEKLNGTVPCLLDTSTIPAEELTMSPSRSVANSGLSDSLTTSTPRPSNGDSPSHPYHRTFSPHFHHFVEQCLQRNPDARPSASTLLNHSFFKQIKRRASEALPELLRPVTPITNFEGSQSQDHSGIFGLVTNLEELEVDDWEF
Chain of STK11 CAB39 STRADA (human) (Q9Y376 whole entry, looked up): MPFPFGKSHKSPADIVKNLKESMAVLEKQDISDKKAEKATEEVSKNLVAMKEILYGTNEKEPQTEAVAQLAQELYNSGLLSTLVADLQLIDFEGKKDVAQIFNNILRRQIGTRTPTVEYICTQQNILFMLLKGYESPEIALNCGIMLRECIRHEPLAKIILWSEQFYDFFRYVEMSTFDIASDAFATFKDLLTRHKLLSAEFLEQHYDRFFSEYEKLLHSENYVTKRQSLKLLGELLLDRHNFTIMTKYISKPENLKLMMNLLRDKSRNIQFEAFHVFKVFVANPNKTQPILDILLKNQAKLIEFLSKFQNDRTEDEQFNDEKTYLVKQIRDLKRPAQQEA

SYK (human) = SYK (human) (UniProt P43405)
TTK (human) = TTK (human) (UniProt P33981)

Chain of AURKB (human) (Q96GD4 whole entry, looked up): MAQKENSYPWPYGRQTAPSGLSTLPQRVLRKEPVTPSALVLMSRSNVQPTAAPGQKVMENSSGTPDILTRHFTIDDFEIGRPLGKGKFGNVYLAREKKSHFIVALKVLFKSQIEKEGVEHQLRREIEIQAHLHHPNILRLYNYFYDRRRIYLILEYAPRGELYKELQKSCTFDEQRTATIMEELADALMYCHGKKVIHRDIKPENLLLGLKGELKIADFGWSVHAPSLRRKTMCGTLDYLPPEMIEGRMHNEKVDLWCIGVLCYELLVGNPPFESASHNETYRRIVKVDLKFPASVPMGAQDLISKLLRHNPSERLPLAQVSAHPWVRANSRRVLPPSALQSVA

## COc1cc(C(=O)N2CCC(N3CCN(C)CC3)CC2)ccc1Nc1ncc2c(n1)N(C)c1ccccc1C(=O)N2C
[1]; compound 1.0 µM
  residual activity: 93%
[1]; compound 10.0 µM
  residual activity: 79%
AURKB (human)
  IC50: 1100 nM
AURKB (human); compound 1.0 µM
  residual activity: 64%
AURKB (human); compound 10.0 µM
  residual activity: 28%
CHEK1 (human); compound 1.0 µM
  residual activity: 82%
CHEK1 (human); compound 10.0 µM
  residual activity: 96%
CLK2 (human); compound 1.0 µM
  residual activity: 76%
CLK2 (human); compound 10.0 µM
  residual activity: 69%
CSNK2A1 (human); compound 1.0 µM
  residual activity: 71%
CSNK2A1 (human); compound 10.0 µM
  residual activity: 80%
CaMK1 (human); compound 1.0 µM
  residual activity: 75%
CaMK1 (human); compound 10.0 µM
  residual activity: 43%
DCLK2 (human)
  IC50: 210 nM
EPHA2 (human); compound 1.0 µM
  residual activity: 98%
EPHA2 (human); compound 10.0 µM
  residual activity: 91%
EPHB3 (human); compound 1.0 µM
  residual activity: 71%
EPHB3 (human); compound 10.0 µM
  residual activity: 71%
FGFR1 (human); compound 1.0 µM
  residual activity: 83%
FGFR1 (human); compound 10.0 µM
  residual activity: 60%
HIPK1 (human); compound 1.0 µM
  residual activity: 94%
HIPK1 (human); compound 10.0 µM
  residual activity: 104%
JAK2 JH1 JH2 (human); compound 1.0 µM
  residual activity: 74%
JAK2 JH1 JH2 (human); compound 10.0 µM
  residual activity: 80%
MAP2K1 (human); compound 1.0 µM
  residual activity: 94%
MAP2K1 (human); compound 10.0 µM
  residual activity: 86%
MAP3K9 (human); compound 1.0 µM
  residual activity: 87%
MAP3K9 (human); compound 10.0 µM
  residual activity: 96%
MAPK1 (human); compound 1.0 µM
  residual activity: 83%
MAPK1 (human); compound 10.0 µM
  residual activity: 85%
MAPK11 (human); compound 1.0 µM
  residual activity: 73%
MAPK11 (human); compound 10.0 µM
  residual activity: 45%
MAPK12 (human); compound 1.0 µM
  residual activity: 90%
MAPK12 (human); compound 10.0 µM
  residual activity: 106%
MAPK8 (human); compound 1.0 µM
  residual activity: 85%
MAPK8 (human); compound 10.0 µM
  residual activity: 96%
MAPK9 (human); compound 1.0 µM
  residual activity: 79%
MAPK9 (human); compound 10.0 µM
  residual activity: 98%
MARK1 (human); compound 1.0 µM
  residual activity: 89%
MARK1 (human); compound 10.0 µM
  residual activity: 93%
MARK3 (human); compound 1.0 µM
  residual activity: 100%
MARK3 (human); compound 10.0 µM
  residual activity: 105%
MST4 (human); compound 1.0 µM
  residual activity: 90%
MST4 (human); compound 10.0 µM
  residual activity: 87%
MYLK (human)
  IC50: 12200 nM
MYLK (human); compound 1.0 µM
  residual activity: 76%
MYLK (human); compound 10.0 µM
  residual activity: 25%
PAK4 (human); compound 1.0 µM
  residual activity: 94%
PAK4 (human); compound 10.0 µM
  residual activity: 108%
PHKG1 (human); compound 1.0 µM
  residual activity: 98%
PHKG1 (human); compound 10.0 µM
  residual activity: 59%
PIM3 (human); compound 1.0 µM
  residual activity: 97%
PIM3 (human); compound 10.0 µM
  residual activity: 76%
PRKCZ (human); compound 1.0 µM
  residual activity: 94%
PRKCZ (human); compound 10.0 µM
  residual activity: 104%
RPS6KA1 KD1 KD2 (human); compound 1.0 µM
  residual activity: 97%
RPS6KA1 KD1 KD2 (human); compound 10.0 µM
  residual activity: 367%
SRC (human); compound 1.0 µM
  residual activity: 99%
SRC (human); compound 10.0 µM
  residual activity: 99%
SRPK1 (human); compound 1.0 µM
  residual activity: 98%
SRPK1 (human); compound 10.0 µM
  residual activity: 110%
[2]; compound 1.0 µM
  residual activity: 78%
[2]; compound 10.0 µM
  residual activity: 78%
SYK (human); compound 1.0 µM
  residual activity: 71%
SYK (human); compound 10.0 µM
  residual activity: 63%
TTK (human); compound 1.0 µM
  residual activity: 84%
TTK (human); compound 10.0 µM
  residual activity: 91%
